The text below walks through data of US6177475A, “Methods of using integrin modulators for treatment of inflammation” (priority 1997, dated 2001).

As usually defined, the IC50 is the concentration that gives 50% inhibition.

One assay relates to LFA-1. In words: TPA-induced homotypic adhesion (aggregation) of peripheral blood leukocytes. It is filed as cell-based, human. The conditions noted are these: ~100 micromoles per liter Ajoene. How it is done: Normal human peripheral blood leukocytes (PBLS) were cultured for 5 days without stimulation in complete RPMI medium (Sigma Chemical Co., St. Louis, Mo.), washed, and resuspended at 9×10^6 cells/ml in the same medium. Fifty microliters of the cells were added in duplicate to wells containing 100 microliters of an Ajoene solution (50 micrograms/ml),anti-LFA-1 antibody (H52) solution (20 micrograms/ml), or vehicle controls. The plate was then incubated for 30 min at 37° C. before adding to each well 50 microliters of a solution of 12-O-tetradecanoyl 4-β-phorbol 13-acetate (TPA) to the final concentration of 125 ng/ml). The plate was incubated for 45 min at 37° C., followed by additional 10-min incubation at room temperature on a shaking platform. The cells were allowed to settle, and adhesion was quantitated by counting the number of free cells in random high-power fields in the duplicate wells. Following incubation with TPA, 75 to 90% of cells are typically found in large aggregates as a result of LFA-1 upregulation. TPA induced a 90% aggregation in PBLs that were preincubated with vehicle controls. […] This example provides conclusive evidence that, in addition to GP IIb/IIIa and VIA-4, Ajoene modulates the integrin LFA-1. […]

Another assay concerns melanoma B16 cells. In words: Melanoma cell implantation (subcutaneous B16). In kind it is in vivo, C57BL/6 mice. The conditions noted are these: Mus musculus, sc; B16 cells pretreated 15 min; tumor volume at 14 and 21 days. How it is done:
Male C57BL/6 mice were inoculated subcutaneously with 10^6 B16 cells (pretreated for 15 min with Ajoene) in their pretreatment medium, and the volume of the tumors formed was measured 14 and 21 days after the injection.

With `C=CCSSC=CC[S+]([O-])CC=C` (centres unmarked) [Ajoene, 4,5,9-trithiadodeca-1,6,11-triene-9-oxide], in the assay with LFA-1, the “inhibition of TPA-induced homotypic adhesion of PBLs” value is “completely inhibited”. Also, the IC50 in the assay on melanoma B16 cells amounted to 2500 nM.
